From USRE42152E1, “Aromatic-linked polyamine macrocyclic compounds with anti-HIV activity” (Genzyme Corporation, priority 1992, dated 2011)
In brackets after ≈: the same amount, converted by molar mass. Read-outs that look alike come from different tables or passages of the source.

Legend:
Type in all cases: cell-based
HIV-1 (HTLV-IIIB) = assay: microbe, parasite or virus in culture; conditions: for IC50: Human immunodeficiency virus 1, IIIB, MT4, 120 h, read-out: IC50 HIV-1 (IIIB)
MT-4 cells = assay: Cytotoxicity by MTT method in MT-4 cells
HIV-2 (LAV-2 ROD) = assay: MTT anti-viral screen, MT-4 cells challenged with HIV-2; conditions: for IC50: Human immunodeficiency virus 2, MT4, 120 h, read-out: IC50 HIV-2 (ROD)
[1] = Cytotoxicity by MTT method in MT-4 cells
[2] = MT-4 cells, 100 CCID50, 5 days, MTT
[3] = human, MT-4 cells, 5 days, MTT; HIV-1 part of table; read-out: CC50 (HIV-1 (IIIB))
[4] = human, MT-4 cells, 5 days, MTT; HIV-2 part of table; read-out: CC50 (HIV-2 (ROD))
[5] = human; MT-4 cells, 5 days, MTT; HIV-1 part of table; read-out: CC50 (HIV-1 (IIIB))
[6] = MT-4 cells, 5 days, MTT, HIV-1 part of table
[7] = MT-4 cells, 5 days, MTT, HIV-2 part of table

IC50 HIV-1 (IIIB) (HIV-1 (HTLV-IIIB); [2])	IC50 HIV-2 (ROD) (HIV-2 (LAV-2 ROD); [2])	Compound	CC50 (HIV-1 (IIIB)) (MT-4 cells)	CC50 (HIV-2 (ROD)) (MT-4 cells)	further results
0.01 µg/mL	0.02 µg/mL	Br.Br.Br.Br.Br.Br.Br.Br.c1cc(CN2CCCNCCNCCCNCC2)sc1CN1CCCNCCNCCCNCC1 [Compound T, 1,1′-[2,5-Thophenebis-(methylene)]-bis-1,4,8,11-tetraazacyclotetradecane octahydrobromide]	>500 µg/mL	>500 µg/mL	–
0.07 µg/mL (≈ 0.127 µM)	0.05 µg/mL (≈ 0.0904 µM)	c1ccc2c(CN3CCCNCCNCCCNCC3)ccc(CN3CCCNCCNCCCNCC3)c2c1 [E, 1,1′-[1,4-naphthylenebis(methylene)]bis-1,4,8,11-tetraazacyclotetradecane]	71 µg/mL (≈ 128 µM)	71 µg/mL (≈ 128 µM)	–
0.0489 µg/mL (≈ 0.0843 µM)	0.0246 µg/mL (≈ 0.0424 µM)	c1ccc(-c2cc(CN3CCCNCCNCCCNCC3)cc(CN3CCCNCCNCCCNCC3)n2)cc1 [Z, 1,1′-[6-phenyl-2,4-pyridinebis-(methylene)]-bis-1,4,8,11-tetraazacyclotetradecane]	>250 µg/mL	>250 µg/mL	–

Further lines, the compound ahead of its results:

Compound	IC50 HIV-1 (IIIB) (HIV-1 (HTLV-IIIB); [2])	IC50 HIV-2 (ROD) (HIV-2 (LAV-2 ROD); [2])	CC50 (HIV-1 (IIIB)) (MT-4 cells)	CC50 (HIV-2 (ROD)) (MT-4 cells)	further results
Br.Br.Br.Br.Br.Br.Br.Br.Br.Br.O.O.O.c1cc2ccc3ccc(CN4CCCNCCNCCCNCC4)nc3c2nc1CN1CCCNCCNCCCNCC1 [Compound L, 1,1′-[2,9-(1,10-Phenanthroline)-bis-(methylene)]-bis-1,4,8,11-tetraazacyclotetradecane decahydrobromide trihydrate]	0.29 µg/mL	0.32 µg/mL	>200 µg/mL	>200 µg/mL	–
Cc1cc(CN2CCCNCCNCCCNCC2)c(C)cc1CN1CCCNCCNCCCNCC1 [W, 1,1′-[2,5-dimethyl-1,4-phenylenebis-(methylene)]-bis-1,4,8,11-tetraazacyclotetradecane]	–	–	–	–	IC50 (HIV-1 (HTLV-IIIB); [2]): 0.0076 µg/mL (≈ 0.0143 µM); CC50 at 5 days [1, 3]: > 250 µg/mL; CC50 at 5 days [1, 4]: > 250 µg/mL; IC50 (HIV-2 (LAV-2 ROD); [2]): 0.0013 µg/mL (≈ 0.00245 µM)
Br.Br.Br.Br.Br.Br.Br.Br.O.O.O.O.c1cc(CN2CCCNCCNCCCNCC2)cc(-c2cccc(CN3CCCNCCNCCCNCC3)c2)c1 [Compound J, 1,1′-[3,3′-Biphenylene-bis-(methylene)]-bis-1,4,8,11-tetraazacyclotetradecane octahydrobromide tetrahydrate]	0.16 µg/mL	0.22 µg/mL	>200 µg/mL	>200 µg/mL	–
Br.Br.Br.Br.Br.Br.c1cc(CN2CCNCCNCCNCC2)ccc1CN1CCNCCNCCNCC1 [Compound R, 1,1′-[1,4-Phenylenebis-(methylene)]-bis-1,4,7,10-tetraazacyclododecane hexahydrobromide]	–	–	–	–	IC50 (HIV-1 (HTLV-IIIB)): 0.3 µg/mL; CC50 at 5 days [1, 5]: 51 µg/mL; IC50 (HIV-2 (LAV-2 ROD)): 2.2 µg/mL
O=[N+]([O-])c1cc(CN2CCCNCCNCCCNCC2)cc(CN2CCCNCCNCCCNCC2)c1 [Compound C, 1,1′-[5-nitro-1,3-phenylenebis-(methylene)]-bis-1,4,8,11-tetraazacyclotetradecane]	–	–	–	–	IC50 (HIV-1 (HTLV-IIIB); [2]): 0.05 µg/mL (≈ 0.0913 µM); CC50 at 5 days [1, 3]: 55 µg/mL (≈ 100 µM); CC50 at 5 days [1, 4]: 55 µg/mL (≈ 100 µM); IC50 (HIV-2 (LAV-2 ROD); [2]): 0.07 µg/mL (≈ 0.128 µM)
1,1′-[1,4-Phenylene-bis-(methylene)]-bis-1,4,8,11-tetraazacyclotetradecane copper diacetate hexahydrate [Compound G]	0.018 µg/mL	0.027 µg/mL	–	–	CC50 (HIV-1 (IIIB)) (MT-4 cells; [6]): >200 µg/mL; CC50 (HIV-2 (ROD)) (MT-4 cells; [7]): >200 µg/mL
Clc1cc(CN2CCCNCCNCCCNCC2)c(Cl)cc1CN1CCCNCCNCCCNCC1 [X, 1,1′-[2,5-dichloro-1,4-phenylenebis-(methylene)]-bis-1,4,8,11-tetraazacyclotetradecane]	–	–	–	–	IC50 (HIV-1 (HTLV-IIIB); [2]): 0.0131 µg/mL (≈ 0.0229 µM); CC50 at 5 days [1, 3]: 71.9 µg/mL (≈ 126 µM); CC50 at 5 days [1, 4]: 72.7 µg/mL (≈ 127 µM); IC50 (HIV-2 (LAV-2 ROD); [2]): 0.003 µg/mL (≈ 0.00525 µM)
Br.Br.Br.Br.Br.Br.Br.Br.Br.Br.O.O.O.O.O.c1cc(CN2CCCNCCNCCCNCC2)cc(-c2cc(CN3CCCNCCNCCCNCC3)ccn2)n1 [Compound K, 1,1′-[4,4′-(2,2′-Bipyridine)-bis-(methyl)]-bis-1,4,8,11-tetraazacyclotetradecane decahydrobromide pentahydrate]	0.38 µg/mL	0.35 µg/mL	–	–	CC50 (HIV-1 (IIIB)) (MT-4 cells; [6]): 117 µg/mL; CC50 (HIV-2 (ROD)) (MT-4 cells; [7]): 117 µg/mL
Br.Br.Br.Br.Br.Br.c1cc(CN2CCNCCNCCNCC2)cc(CN2CCNCCNCCNCC2)c1 [Compound Q, 1,1′-[1,3-Phenylenebis-(methylene)]-bis-1,4,7,10-tetraazacyclododecane hexahydrobromide]	–	–	–	–	IC50 (HIV-1 (HTLV-IIIB)): 0.07 µg/mL; CC50 at 5 days [1, 5]: 19 µg/mL; IC50 (HIV-2 (LAV-2 ROD)): 0.5 µg/mL
Br.Br.Br.Br.Br.Br.Br.Br.Br.O.O.c1ncc(CN2CCCNCCNCCCNCC2)cc1CN1CCCNCCNCCCNCC1 [Compound P, 1,1′[3,5-Pyridinebis-(methylene)]-bis-1,4,8,11-tetraazacyclotetradecane nonahydrobromide dihydrate]	0.04 µg/mL	0.09 µg/mL	>500 µg/mL	>500 µg/mL	–
c1cc(CN2CCCNCCNCCCNCC2)cc(CN2CCCNCCNCCCNCC2)c1 [A, 1,1′-[1,3-phenylenebis(methylene)]bis-1,4,8,11-tetraazacyclotetradecane]	–	–	–	–	IC50 (HIV-1 (HTLV-IIIB); [2]): 0.03 µg/mL (≈ 0.0597 µM); CC50 at 5 days [1, 3]: > 500 µg/mL; CC50 at 5 days [1, 4]: > 500 µg/mL; IC50 (HIV-2 (LAV-2 ROD); [2]): < 0.01 µg/mL
Br.Br.Br.Br.Br.Br.Br.Br.O.O.O.O.c1cc(CN2CCCNCCNCCCNCC2)nc(CN2CCCNCCNCCCNCC2)c1 [Compound O, 1,1′-[2,6-Pyridinebis-(methylene)]-bis-1,4,8,11-tetraazacyclotetradecane octahydrobromide tetrahydrate]	0.03 µg/mL	0.08 µg/mL	>500 µg/mL	>500 µg/mL	–
Br.Br.Br.Br.Br.Br.Br.Br.O.O.c1cc(CN2CCCNCCNCCNCCC2)ccc1CN1CCCNCCNCCNCCC1 [Compound M, 11,11′-[1,4-Phenylene-bis-(methylene)]-bis-1,4,7,11-tetraazacyclotetradecane octahydrobromide dihydrate]	–	–	–	–	IC50 (HIV-1 (HTLV-IIIB)): 0.03 µg/mL; CC50 (HIV-2 (ROD)) (MT-4 cells; [7]): >500 µg/mL; CC50 at 5 days [1, 5]: > 500 µg/mL; IC50 (HIV-2 (LAV-2 ROD)): 0.07 µg/mL
Br.Br.Br.Br.Br.Br.Br.Br.O.O.O.O.O.O.c1cc(CN2CCCNCCNCCCNCC2)ccc1CN1CCCNCCNCCNCCC1 [Compound N, 1,11′-[1,4-Phenylene-bis-(methylene)]-1,4,8,11-tetraazacyclotetradecane-1,4,7,11-tetraazacydotetradecane octahydrobromide hexahydrate]	0.01 µg/mL	0.07 µg/mL	>500 µg/mL	>500 µg/mL	–
1,1′-[1,4-Phenylene-bis-(methylene)]-bis-1,4,8,11-tetraazacyclotetradecane zinc dichloride monohydrate [Compound F]	0.0026 µg/mL	0.0019 µg/mL	–	–	CC50 (HIV-1 (IIIB)) (MT-4 cells; [6]): >200 µg/mL; CC50 (HIV-2 (ROD)) (MT-4 cells; [7]): >200 µg/mL
Brc1cc(CN2CCCNCCNCCCNCC2)ccc1CN1CCCNCCNCCCNCC1 [Y, 1,1′-[2-bromo-1,4-phenylenebis-(methylene)]-bis-1,4,8,11-tetraazacyclotetradecane]	–	–	–	–	IC50 (HIV-1 (HTLV-IIIB); [2]): 0.0075 µg/mL (≈ 0.0129 µM); CC50 at 5 days [1, 3]: > 250 µg/mL; CC50 at 5 days [1, 4]: > 250 µg/mL; IC50 (HIV-2 (LAV-2 ROD); [2]): 0.0043 µg/mL (≈ 0.00739 µM)
